# Reference: patent US9428496B2, “Thiazolamine derivative and use thereof as anti-picornaviral infection medicament” (Institute of Pharmacology and Toxicology Academy of …, priority 2010, dated 2016)
# Like-named read-outs stand apart in the source and are kept apart here.
# Columns and labels:
# enterovirus Cox A16 = assay: microbe, parasite or virus in culture; type: cell-based; settings: for IC50: Enterovirus, read-out: CoxA16 IC50; for CoxA16 SI: CoxA16, Vero cells
# Procedure: (§1) Anti-picornaviral activity of the compounds of the present invention in in vitro model Test item: activity screening of compounds against enteroviruses EV71 and Cox A16 Test principle: using Vero cells as virus host, the cytopathic effect of Vero cells induced by the inhibition of compounds against enteroviruses EV71 and Cox A16 was measured.
# (§2) 1. Virus strains: enteroviruses EV71 (Shenzhen 98) and Cox A16, passaging in the laboratory.
# (§3) Test Method: Vero cells were incubated in a 96-well culture plate. After 24 hours, they were infected with EV71 and Cox A16 by adsorption for 2 hours. After discarding the virus solution, maintenance solutions containing different concentrations of samples and positive controls were added, and, at the same time, cell control wells and virus control wells were set. […] The half inhibitory concentrations (IC50) of the samples against EV71 and Cox A16 were respectively calculated according to the Reed-Muench method.
# [1] = tested on: enterovirus EV71 (Shenzhen 98); assay: Inhibition of cytopathic effect (CPE) induced by EV71 in Vero cells; type: cell-based; settings: for IC50 / EV71 IC50: CPE in Vero cells, Reed-Muench method; for EV71 SI: EV71, Vero cells
# Procedure: as §1, §2, §3
# Vero cells = assay: Toxicity of compounds to the Vero host cells (TC50, TC0); type: cell-based
# [2] = CPE in Vero cells, Reed-Muench method
Compound,IC50 (enterovirus Cox A16; [2]) [µg/mL],CoxA16 SI (enterovirus Cox A16),IC50 [1] [µg/mL],melting point [°C],TC0 (Vero cells; Vero cells) [µg/mL],TC50 (Vero cells; Vero cells) [µg/mL],EV71 SI [1],CoxA16 IC50 (enterovirus Cox A16; [2]) [µg/mL],EV71 IC50 [1] [µg/mL],TC0 (Vero cells) [µg/mL],TC50 (Vero cells) [µg/mL],IC50 (enterovirus Cox A16; Vero) [µg/mL]
"Brc1ccc(OCCCCCCN2CCN(c3nccs3)CC2)cc1 [Example 14, 2-{4-[6-(4-bromophenoxy)hexyl]piperazin-1-yl}thiazole]",6.25,5.0,> 12.5,66 to 68,12.5,31.5,–,–,–,–,–,–
"CCOc1ccc(OCCCCCN2CCN(c3nccs3)CC2)cc1 [Example 2, 2-{4-[5-(4-ethoxyphenoxy)pentyl]piperazin-1-yl}thiazole]",1.97,12.7,7.87,79 to 81,12.5,25.0,3.2,–,–,–,–,–
"Cc1ccc(OCCCCCCN2CCN(c3nccs3)CC2)cc1 [Example 8, 2-{4-[6-(4-methylphenoxy)hexyl]piperazin-1-yl}thiazole]",4.96,5.0,> 12.5,37 to 39,12.5,25.0,–,–,–,–,–,–
2-{4-[5-(4-tert-butylphenoxy)pentyl]piperazin-1-yl}thiazole [Example 16],–,5.8,–,–,12.5,25.0,–,4.30,>12.5,–,–,–
2-{4-[5-(4-tert-butylphenoxy)pentyl]piperazin-1-yl}thiazole hydrochloride [Example 22],–,4.0,–,–,–,–,12.7,6.25,1.97,12.5,25.0,–
"Brc1ccc(OCCCCCN2CCN(c3nccs3)CC2)cc1 [Example 17, 2-{4-[5-(4-bromophenoxy)pentyl]piperazin-1-yl}thiazole]",> 0.78,–,> 0.78,73 to 75,0.78,4.96,–,–,–,–,–,–
"Fc1ccc(OCCCCCN2CCN(c3nccs3)CC2)cc1 [Example 3, 2-{4-[5-(4-fluorophenoxy)pentyl]piperazin-1-yl}thiazole]",> 12.5,–,> 12.5,42 to 44,12.5,79.37,–,–,–,–,–,–
"COc1ccc(OCCCCCCN2CCN(c3nccs3)CC2)cc1.Cl [Example 20, 2-{4-[6-(4-methoxyphenoxy)hexyl]piperazin-1-yl}thiazole hydrochloride]",> 3.13,–,> 3.13,221 to 223,3.13,63.0,–,–,–,–,–,–
5-{4-[3-(4′-ethoxybiphenyl-4-oxy)pentyl]piperazin-1-yl}thiazole [Example 15],–,>2.0,–,–,–,–,–,100,>200.0,>200.0,>200.0,–
"Fc1ccc(OCCCCCCN2CCN(c3nccs3)CC2)cc1 [Example 12, 2-{4-[6-(4-fluorophenoxy)hexyl]piperazin-1-yl}thiazole]",> 12.5,–,> 12.5,58 to 60,12.5,25.0,–,–,–,–,–,–
"Brc1ccc(OCCCCCN2CCN(c3nccs3)CC2)cc1.Cl [Example 18, 2-{4-[5-(4-bromophenoxy)pentyl]piperazin-1-yl}thiazole hydrochloride]",> 0.78,–,> 0.78,221 to 223,0.78,4.96,–,–,–,–,–,–
"CC(C)(C)c1ccc(OCCCCCN2CCN(c3nccs3)CC2)cc1 [Example 6, 2-{4-[5-(4-tert-butylphenoxy)pentyl]piperazin-1-yl}thiazole]",1.57,4.0,> 3.13,125 to 127,3.13,6.25,–,–,–,–,–,–
"CCc1ccc(OCCCCCCN2CCN(c3nccs3)CC2)cc1 [Example 9, 2-{4-[6-(4-ethylphenoxy)hexyl]piperazin-1-yl}thiazole]",3.13,2.0,1.97,21 to 23,3.13,6.25,3.2,–,–,–,–,–
"CCc1ccc(OCCCCCN2CCN(c3nccs3)CC2)cc1 [Example 4, 2-{4-[5-(4-ethylphenoxy)pentyl]piperazin-1-yl}thiazole]",1.97,6.3,> 3.13,125 to 127,3.13,12.5,–,–,–,–,–,–
"c1ccc(OCCCCCCN2CCN(c3nccs3)CC2)cc1 [Example 10, 2-[4-(6-phenoxyhexyl)piperazin-1-yl]thiazole]",12.5,2.0,> 12.5,37 to 39,12.5,25.0,–,–,–,–,–,–
2-{4-[5-(4-tert-butylphenoxy)pentyl]piperazin-1-yl}thiazole [Example 13],–,3.2,–,–,12.5,25.0,–,7.87,>12.5,–,–,–
"CC(C)c1ccc(OCCCCCN2CCN(c3nccs3)CC2)cc1 [Example 5, 2-{4-[5-(4-isopropylphenoxy)pentyl]piperazin-1-yl}thiazole]",1.57,4.0,> 3.13,128 to 130,3.13,6.25,–,–,–,–,–,–
"Cl.c1ccc(OCCCCCN2CCN(c3nccs3)CC2)cc1 [Example 19, 2-[4-(5-phenoxypentyl)piperazin-1-yl]thiazole hydrochloride]",12.5,6.3,> 12.5,145 to 147,12.5,79.37,–,–,–,–,–,–
"CC(C)c1ccc(OCCCCCCN2CCN(c3nccs3)CC2)cc1.Cl [Example 23, 2-{4-[6-(4-isopropylphenoxy)hexyl]piperazin-1-yl}thiazole hydrochloride]",0.57,34.8,1.97,135 to 137,3.13,19.84,10.1,–,–,–,–,–
"CCOc1ccc(OCCCCCCN2CCN(c3nccs3)CC2)cc1.Cl [Example 21, 2-{4-[6-(4-ethoxyphenoxy)hexyl]piperazin-1-yl}thiazole hydrochloride]",3.13,8.0,1.97,222 to 224,3.13,25.0,12.7,–,–,–,–,–
"Cc1ccc(OCCCCCN2CCN(c3nccs3)CC2)cc1 [Example 7, 2-{4-[5-(4-methylphenoxy)pentyl]piperazin-1-yl}thiazole]",> 3.13,–,> 3.13,125 to 127,3.13,19.84,–,–,–,–,–,–
"CC(C)(C)c1ccc(OCCCCCCN2CCN(c3nccs3)CC2)cc1 [Example 11, 2-{4-[6-(4-tert-butylphenoxy)hexyl]piperazin-1-yl}thiazole]",3.13,2.0,1.57,30 to 32,3.13,6.25,4.0,–,–,–,–,–
"COc1ccc(OCCCCCN2CCN(c3nccs3)CC2)cc1 [Example 1, 2-{4-[5-(4-methoxyphenoxy)pentyl]piperazin-1-yl}thiazole]",25,4.0,36.3,83 to 85,50.0,100.0,2.8,–,–,–,–,–
"NC(=O)c1ncn([C@@H]2O[C@H](CO)[C@@H](O)[C@H]2O)n1 [Con, ribavirin, reference compound]",–,–,517,–,500.0,2000,–,–,–,–,–,363
